According to patent US20230042599A1, “CELLULOSIC COMPOUNDS AND AGRICULTURAL USES THEREOF” (HELIAE DEVELOPMENT, LLC, priority 2021, published 2023):

Tests used:
[1] = system: rifampicin-resistant strain of a Gram-negative Kosakonia sp. bacterium; experiment: Desiccation resistance (viability, CFU) of Kosakonia sp. cells mixed with protectant agents and dried in 96-well plates; format: cell-based; details: after 5 days and 7 days of desiccation stress; protectants at 1% or 0.5% (whole broth and cell pellet undiluted or 2x dilution)
Text: A rifampicin-resistant strain of a Gram-negative Kosakonia sp. bacterium was mixed with water (untreated control or “UTC”), trehalose, carboxymethylcellulose (“CMC”), methylcellulose (“MC”), extracellular polymeric substance from Parachlorella kessleri Accession No. NCMA 202103001 (“EPS”), sodium alginate (“Na-Alginate”), Parachlorella kessleri Accession No. NCMA 202103001 whole broth (“3001 Broth”), or Parachlorella kessleri Accession No. NCMA 202103001 cell pellet after centrifugation (“3001 Pellet”) in 96-well plates. Each of the protectant agents was added undiluted (i.e., at a 1× dilution) or at a 2× dilution (i.e., at […] to 1 part protectant) for whole broth and cell pellets or at a concentration of 1% (i.e., 1 g/100 mL) or 0.5% (i.e., 0.5 g/100 mL) for all other protectants. […]
The liquid medium in the plates was allowed to dry at room temperature inside a desiccation chamber for several days to create desiccation stress in the bacterial cell cultures. […] The bacterial cells were evaluated for survival and growth after 5 days of desiccation stress and after 7 days of desiccation stress.
The colony forming unit (CFU) data in these figures were generated by counting the number of colonies on each spot (see spots on representative plates shown in FIGS. 2A, 2B, and 2C) and using the following formula for quantifying viable cell density: […]

[2] = system: co-culture of Gram-negative Kosakonia pseudosacchari strain JM-387 and Pseudomonas aylmerense strain S1E40; experiment: Desiccation resistance (viability, CFU) of a bacterial co-culture mixed with protectant agents; format: cell-based; details: after 3, 5 and 7 days of desiccation stress, protectants at 1% (whole broth and cell pellet undiluted)

For OC[C@H]1O[C@H](O[C@H]2O[C@H](CO)[C@@H](O)[C@H](O)[C@H]2O)[C@H](O)[C@@H](O)[C@@H]1O [Trehalose], the “protective effect on the Kosakonia sp. cells (viability after desiccation stress)” value [1] was “demonstrated a protective effect” and the “protective effect on the Gram-negative bacterial cells (viability after desiccation stress)” value [2] was “demonstrated a protective effect”.
